Data from the kinase profiling compilation of Christmann-Franck et al. (2016).

Tests used:
Assay in all cases: radiometric filter-binding kinase assay
[1] = target: TTK (human) (UniProt P33981); conditions: compound 10.0 µM
[2] = target: IKBKE (human) (UniProt Q14164); conditions: compound 10.0 µM
[3] = target: MAPK14 (human) (UniProt Q16539)
[4] = target: MAPKAPK5 (human) (UniProt Q8IW41)
[5] = tested on: SGK1 (human), O00141 [S422D]
[6] = target: PKN2 (human) (UniProt Q16513)
[7] = target: DYRK2 (human) (UniProt Q92630)
[8] = target: EPHB2 (human) (UniProt P29323); conditions: compound 10.0 µM
[9] = target: IRAK4 (human) (UniProt Q9NWZ3); conditions: compound 10.0 µM
[10] = target: CLK2 (human) (UniProt P49760); conditions: compound 10.0 µM
[11] = target: MELK (human) (UniProt Q14680)
MELK (human), sequence (Q14680 whole entry, looked up): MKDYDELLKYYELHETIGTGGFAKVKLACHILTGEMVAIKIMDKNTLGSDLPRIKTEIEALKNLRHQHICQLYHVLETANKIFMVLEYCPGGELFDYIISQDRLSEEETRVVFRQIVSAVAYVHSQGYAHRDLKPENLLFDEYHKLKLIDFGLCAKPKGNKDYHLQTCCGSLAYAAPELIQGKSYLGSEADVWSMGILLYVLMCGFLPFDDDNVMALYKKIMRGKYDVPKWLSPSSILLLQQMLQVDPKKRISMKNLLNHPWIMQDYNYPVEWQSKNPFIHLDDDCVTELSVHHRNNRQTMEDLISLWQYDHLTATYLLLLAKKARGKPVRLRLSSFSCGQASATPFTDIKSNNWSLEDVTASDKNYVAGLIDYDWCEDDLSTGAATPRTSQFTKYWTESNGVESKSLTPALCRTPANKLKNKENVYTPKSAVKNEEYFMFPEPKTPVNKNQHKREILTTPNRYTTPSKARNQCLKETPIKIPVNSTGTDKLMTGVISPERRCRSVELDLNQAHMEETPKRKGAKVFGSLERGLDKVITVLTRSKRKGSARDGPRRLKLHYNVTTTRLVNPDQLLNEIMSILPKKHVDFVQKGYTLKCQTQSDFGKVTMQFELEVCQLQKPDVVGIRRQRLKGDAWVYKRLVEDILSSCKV

[12] = target: MARK2 (human) (UniProt Q7KZI7); conditions: compound 10.0 µM
[13] = target: PIM1 (human) (UniProt P11309)
[14] = tested on: RPS6KB1 (human), P23443 [T412E]
RPS6KB1 (human), P23443 [T412E], sequence (P23443 whole entry T412E, looked up): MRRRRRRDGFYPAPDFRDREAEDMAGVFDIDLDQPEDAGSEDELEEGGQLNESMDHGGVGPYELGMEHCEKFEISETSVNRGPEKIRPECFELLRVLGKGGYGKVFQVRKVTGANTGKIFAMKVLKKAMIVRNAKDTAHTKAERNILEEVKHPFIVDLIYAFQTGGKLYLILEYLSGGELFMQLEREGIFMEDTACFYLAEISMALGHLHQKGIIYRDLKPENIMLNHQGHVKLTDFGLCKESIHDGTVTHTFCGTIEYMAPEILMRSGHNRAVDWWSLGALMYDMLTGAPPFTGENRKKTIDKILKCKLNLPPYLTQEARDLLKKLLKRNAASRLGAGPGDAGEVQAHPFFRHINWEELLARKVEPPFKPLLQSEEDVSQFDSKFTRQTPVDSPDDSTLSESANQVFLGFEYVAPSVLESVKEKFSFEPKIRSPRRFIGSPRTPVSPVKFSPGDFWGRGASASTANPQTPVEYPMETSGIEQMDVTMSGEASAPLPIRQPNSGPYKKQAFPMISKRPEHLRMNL

[15] = target: FLT1 (human) (UniProt P17948); conditions: compound 10.0 µM
[16] = target: HIPK2 (human) (UniProt Q9H2X6)
[17] = target: DYRK3 (human) (UniProt O43781)
[18] = target: RPS6KA1 KD1 KD2 (human) (UniProt Q15418)
RPS6KA1 KD1 KD2 (human), sequence (Q15418 whole entry, looked up): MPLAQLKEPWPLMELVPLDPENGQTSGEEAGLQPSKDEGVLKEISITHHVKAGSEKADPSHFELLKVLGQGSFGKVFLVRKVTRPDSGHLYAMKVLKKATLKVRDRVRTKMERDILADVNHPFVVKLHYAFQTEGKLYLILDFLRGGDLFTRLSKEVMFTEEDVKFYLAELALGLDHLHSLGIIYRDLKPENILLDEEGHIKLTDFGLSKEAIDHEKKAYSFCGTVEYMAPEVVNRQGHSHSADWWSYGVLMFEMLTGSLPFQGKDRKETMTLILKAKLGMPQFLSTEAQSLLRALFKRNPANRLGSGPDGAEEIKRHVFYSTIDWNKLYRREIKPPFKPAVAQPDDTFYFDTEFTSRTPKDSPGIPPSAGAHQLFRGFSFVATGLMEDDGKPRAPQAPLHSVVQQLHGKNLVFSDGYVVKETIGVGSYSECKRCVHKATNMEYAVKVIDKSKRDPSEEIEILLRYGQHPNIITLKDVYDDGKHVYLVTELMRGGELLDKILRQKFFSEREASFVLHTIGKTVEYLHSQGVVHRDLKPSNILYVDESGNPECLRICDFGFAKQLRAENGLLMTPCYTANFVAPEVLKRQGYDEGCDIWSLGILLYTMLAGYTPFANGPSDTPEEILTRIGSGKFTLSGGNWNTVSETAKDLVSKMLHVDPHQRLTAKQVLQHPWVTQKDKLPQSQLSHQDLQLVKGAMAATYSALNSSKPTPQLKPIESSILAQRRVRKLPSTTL

[19] = target: TAOK1 (human) (UniProt Q7L7X3); conditions: compound 10.0 µM
[20] = target: MYLK (human) (UniProt Q15746)
MYLK (human), sequence (Q15746 whole entry, looked up): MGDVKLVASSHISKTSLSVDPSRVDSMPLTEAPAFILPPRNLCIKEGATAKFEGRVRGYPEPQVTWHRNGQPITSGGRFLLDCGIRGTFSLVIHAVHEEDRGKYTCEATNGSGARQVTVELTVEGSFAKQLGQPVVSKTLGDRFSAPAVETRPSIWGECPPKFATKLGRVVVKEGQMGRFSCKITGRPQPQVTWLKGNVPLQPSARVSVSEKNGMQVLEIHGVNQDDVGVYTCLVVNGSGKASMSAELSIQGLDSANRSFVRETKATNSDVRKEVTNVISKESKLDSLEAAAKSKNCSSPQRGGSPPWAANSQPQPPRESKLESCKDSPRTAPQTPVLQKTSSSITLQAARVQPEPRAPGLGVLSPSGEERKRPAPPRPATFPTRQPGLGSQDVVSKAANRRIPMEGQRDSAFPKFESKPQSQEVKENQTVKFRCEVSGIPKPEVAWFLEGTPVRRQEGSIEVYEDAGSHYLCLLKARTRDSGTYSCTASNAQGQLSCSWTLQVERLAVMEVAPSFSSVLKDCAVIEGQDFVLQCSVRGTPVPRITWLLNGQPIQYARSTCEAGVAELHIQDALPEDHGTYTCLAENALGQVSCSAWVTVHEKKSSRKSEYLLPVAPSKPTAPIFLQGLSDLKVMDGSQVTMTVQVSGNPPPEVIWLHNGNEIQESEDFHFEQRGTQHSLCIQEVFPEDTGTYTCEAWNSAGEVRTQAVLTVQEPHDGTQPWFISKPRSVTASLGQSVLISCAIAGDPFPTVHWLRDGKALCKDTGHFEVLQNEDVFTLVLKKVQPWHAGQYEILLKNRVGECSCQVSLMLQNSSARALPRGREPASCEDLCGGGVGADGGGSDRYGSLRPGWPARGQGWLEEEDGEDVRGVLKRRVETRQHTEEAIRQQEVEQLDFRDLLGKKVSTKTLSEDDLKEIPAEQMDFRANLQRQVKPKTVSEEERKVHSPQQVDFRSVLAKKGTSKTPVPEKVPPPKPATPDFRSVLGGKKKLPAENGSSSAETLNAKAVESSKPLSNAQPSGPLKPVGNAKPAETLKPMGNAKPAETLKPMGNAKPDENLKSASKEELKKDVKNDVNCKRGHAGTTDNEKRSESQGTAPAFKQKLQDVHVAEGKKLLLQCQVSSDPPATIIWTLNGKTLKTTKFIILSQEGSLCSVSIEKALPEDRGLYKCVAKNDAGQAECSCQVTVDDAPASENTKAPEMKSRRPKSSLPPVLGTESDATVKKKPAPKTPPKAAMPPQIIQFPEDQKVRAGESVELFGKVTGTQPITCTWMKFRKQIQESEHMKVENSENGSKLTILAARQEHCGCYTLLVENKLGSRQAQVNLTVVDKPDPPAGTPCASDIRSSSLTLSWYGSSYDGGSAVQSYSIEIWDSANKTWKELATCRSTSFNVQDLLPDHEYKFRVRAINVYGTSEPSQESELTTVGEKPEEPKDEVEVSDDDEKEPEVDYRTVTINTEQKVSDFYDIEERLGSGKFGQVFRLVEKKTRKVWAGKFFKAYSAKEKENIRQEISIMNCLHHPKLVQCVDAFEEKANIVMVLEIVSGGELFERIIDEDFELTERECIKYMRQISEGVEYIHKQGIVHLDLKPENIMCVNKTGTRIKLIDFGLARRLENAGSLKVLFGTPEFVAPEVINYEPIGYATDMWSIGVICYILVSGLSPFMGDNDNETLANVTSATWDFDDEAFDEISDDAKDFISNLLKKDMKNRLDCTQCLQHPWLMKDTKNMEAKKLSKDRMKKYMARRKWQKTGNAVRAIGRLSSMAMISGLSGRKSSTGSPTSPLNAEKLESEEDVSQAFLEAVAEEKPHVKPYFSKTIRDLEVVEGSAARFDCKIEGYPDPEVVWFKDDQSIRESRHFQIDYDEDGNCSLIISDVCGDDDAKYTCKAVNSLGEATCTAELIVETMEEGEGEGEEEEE

[21] = target: EPHB4 (human) (UniProt P54760); conditions: compound 10.0 µM
[22] = target: NEK2 (human) (UniProt P51955)
NEK2 (human), sequence (P51955 whole entry, looked up): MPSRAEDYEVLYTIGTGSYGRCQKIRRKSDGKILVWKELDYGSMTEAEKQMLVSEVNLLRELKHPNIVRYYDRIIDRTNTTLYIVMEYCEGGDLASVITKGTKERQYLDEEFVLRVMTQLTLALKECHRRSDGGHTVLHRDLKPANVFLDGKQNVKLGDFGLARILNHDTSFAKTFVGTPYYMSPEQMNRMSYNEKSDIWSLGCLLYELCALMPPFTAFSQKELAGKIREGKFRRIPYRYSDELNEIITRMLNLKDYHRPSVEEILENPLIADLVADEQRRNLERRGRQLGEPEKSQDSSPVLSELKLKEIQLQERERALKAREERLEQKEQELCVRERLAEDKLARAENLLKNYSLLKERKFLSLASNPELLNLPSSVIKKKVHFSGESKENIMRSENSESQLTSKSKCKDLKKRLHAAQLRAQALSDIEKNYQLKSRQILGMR

[23] = tested on: ROCK2 (rat); conditions: accession and sequence are those of the human protein
[24] = target: MAP3K7 TAB1 (human) (UniProt Q15750+O43318); conditions: compound 10.0 µM
[25] = target: CHEK2 (human) (UniProt O96017)
[26] = target: DAPK1 (human) (UniProt P53355); conditions: compound 10.0 µM
[27] = target: EPHA2 (human) (UniProt P29317); conditions: compound 10.0 µM
[28] = target: PRKCA (human) (UniProt P17252)
[29] = target: GCK (human) (UniProt Q12851); conditions: compound 10.0 µM
[30] = target: MAPK12 (human) (UniProt P53778)
[31] = target: EPHB1 (human) (UniProt P54762); conditions: compound 10.0 µM
[32] = target: PIM3 (human) (UniProt Q86V86)
[33] = target: MAPKAPK2 (human) (UniProt P49137)
[34] = target: STK3 (human) (UniProt Q13188)
[35] = target: MARK1 (human) (UniProt Q9P0L2); conditions: compound 10.0 µM

SGK1 (human), O00141 [S422D], sequence (O00141 whole entry S422D, looked up): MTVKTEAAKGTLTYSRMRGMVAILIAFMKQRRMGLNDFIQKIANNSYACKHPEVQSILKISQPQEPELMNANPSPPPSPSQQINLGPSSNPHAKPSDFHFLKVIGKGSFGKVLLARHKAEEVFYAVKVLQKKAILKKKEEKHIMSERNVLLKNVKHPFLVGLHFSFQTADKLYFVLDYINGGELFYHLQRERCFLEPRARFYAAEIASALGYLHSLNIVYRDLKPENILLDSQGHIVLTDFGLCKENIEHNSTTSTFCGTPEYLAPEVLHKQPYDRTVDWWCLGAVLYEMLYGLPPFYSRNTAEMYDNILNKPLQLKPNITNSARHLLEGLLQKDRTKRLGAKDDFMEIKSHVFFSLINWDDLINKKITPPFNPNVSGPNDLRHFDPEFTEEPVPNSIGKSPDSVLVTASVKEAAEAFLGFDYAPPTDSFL

residual activity [1]: 83% | residual activity [2]: 59% | residual activity ([3]; compound 1.0 µM): 95% | residual activity ([3]; compound 10.0 µM): 97% | residual activity ([3]; compound 50.0 µM): 75% | residual activity ([4]; compound 1.0 µM): 105% | residual activity ([4]; compound 10.0 µM): 85% | residual activity ([4]; compound 50.0 µM): 56% | residual activity ([5]; compound 1.0 µM): 79% | residual activity ([5]; compound 10.0 µM): 94% | residual activity ([5]; compound 50.0 µM): 23% | residual activity ([6]; compound 1.0 µM): 95% | residual activity ([6]; compound 10.0 µM): 70% | residual activity ([6]; compound 50.0 µM): 21% | residual activity ([7]; compound 1.0 µM): 40% | residual activity ([7]; compound 10.0 µM): 15% | residual activity ([7]; compound 50.0 µM): 1% | residual activity [8]: 116% | residual activity [9]: 73% | residual activity [10]: 55% | residual activity ([11]; compound 1.0 µM): 49% | residual activity ([11]; compound 10.0 µM): 50% | residual activity ([11]; compound 50.0 µM): 8% | residual activity [12]: 86% | residual activity ([13]; compound 1.0 µM): 50% | residual activity ([13]; compound 10.0 µM): 30% | residual activity ([13]; compound 50.0 µM): 4% | residual activity ([14]; compound 1.0 µM): 93% | residual activity ([14]; compound 10.0 µM): 69% | residual activity ([14]; compound 50.0 µM): 15% | residual activity [15]: 51% | residual activity ([16]; compound 1.0 µM): 60% | residual activity ([16]; compound 10.0 µM): 30% | residual activity ([16]; compound 50.0 µM): 3% | residual activity ([17]; compound 1.0 µM): 38% | residual activity ([17]; compound 10.0 µM): 8% | residual activity ([17]; compound 50.0 µM): 2% | residual activity ([18]; compound 1.0 µM): 77% | residual activity ([18]; compound 10.0 µM): 63% | residual activity ([18]; compound 50.0 µM): 15% | residual activity [19]: 32% | residual activity ([20]; compound 1.0 µM): 78% | residual activity ([20]; compound 10.0 µM): 63% | residual activity ([20]; compound 50.0 µM): 15% | residual activity [21]: 99% | residual activity ([22]; compound 1.0 µM): 96% | residual activity ([22]; compound 10.0 µM): 91% | residual activity ([22]; compound 50.0 µM): 83% | residual activity ([23]; compound 1.0 µM): 125% | residual activity ([23]; compound 10.0 µM): 83% | residual activity ([23]; compound 50.0 µM): 21% | residual activity [24]: 83% | residual activity ([25]; compound 1.0 µM): 84% | residual activity ([25]; compound 10.0 µM): 79% | residual activity ([25]; compound 50.0 µM): 14% | residual activity [26]: 62% | residual activity [27]: 81% | residual activity ([28]; compound 1.0 µM): 96% | residual activity ([28]; compound 10.0 µM): 82% | residual activity ([28]; compound 50.0 µM): 58% | residual activity [29]: 73% | residual activity ([30]; compound 1.0 µM): 106% | residual activity ([30]; compound 10.0 µM): 78% | residual activity ([30]; compound 50.0 µM): 65% | residual activity [31]: 97% | residual activity ([32]; compound 1.0 µM): 48% | residual activity ([32]; compound 10.0 µM): 44% | residual activity ([32]; compound 50.0 µM): 2% | residual activity ([33]; compound 1.0 µM): 118% | residual activity ([33]; compound 10.0 µM): 88% | residual activity ([33]; compound 50.0 µM): 71% | residual activity ([34]; compound 1.0 µM): 84% | residual activity ([34]; compound 10.0 µM): 69% | residual activity ([34]; compound 50.0 µM): 28% | residual activity [35]: 96%
SMILES: Oc1ccc(/C=C/c2cc(O)cc(O)c2)cc1
